In data set [1] the test system is Staphylococcus aureus 9203. Put plainly: S. aureus intracellular killing assay in bovine PMN. Type of data set: cell-based. The following applies: overnight incubation (18 to 21 hours). The method, then: The therapeutic effect of the rifamycin derivative (1) was determined by S. aureus intracellular killing assay in bovine polymorphonuclear neutrophil (PMN).
The procedure for PMN isolation was as described in Carlton et al. (Proc. Soc. Exp. Biol. Med. 142: 853-858 (1973)).
Bovine blood collected by venipuncture in 50-ml syringes containing 1.5% EDTA (pH 6.8) was centrifuged at 1,000×g for 25 min. The plasma-buffer layer and the top few millileters were discarded. The packed erythrocyte fraction was pooled in 0.8% NaCl-phosphate buffer (pH 6.8) and 10 ml was placed in 20 ml of sterile water for 40 seconds to lyse the erythrocytes. Immediately thereafter, 10 ml of a 2.7% NaCl-phosphate buffer solution was added to restore isotonicity. The leukocytes, consisting of ≦84% PMNs, were washed twice and suspended in HBSS. PMNs were adjusted to a final concentration of 10^7 cells per ml.
The intracellular killing assay was carried out as described in Sanchez et al. (Antimicrobial Agents and Chemotherapy 29(4): 634-638 (1986)).
Bovine blood PMNs and bacteria (1:1) were suspended in HBSS containing 10% heterologous bovine serum. The mixture was incubated for 90 minutes at 37° C. in Erlenmeyer flasks with rotational mixing at 110 rpm. Lysostaphin (5 μg/ml) was added to the mixture for the final 15 minutes of incubation. The infected PMNs were washed 3 times by low-speed centrifugation and suspended in HBSS. Cells were pipetted (1 ml) into each well of a six-well cluster dish (Bellco Glass, Inc., Vineland, N.J.) at 5×10^6 PMNs per well. PMNs were allowed to attach and form a monolayer for 10 minutes at 37° C. The supernatant fluid with unattached cells was discarded, and 2 ml of fresh HBSS was added to each well. The rifamycin derivatives to be tested were then added to the wells (one six-well plate per drug). These derivatives were dissolved in dimethylsulfoxide, and then diluted in HBSS to final solvent concentrations of 0.01% (vol/vol) or less.
After overnight incubation (18 to 21 hours) at 37° C. with 1% CO2, lysostaphin (5 μg/ml) was added to each well for 15 min (at 37° C.) to kill extracellular bacteria. The monolayers were washed with HBSS, and the cells were lysed by addition of 1 ml of water to each well. The number of viable bacteria was then estimated by plate counts on brain heart infusion agar. […] The results are shown in Table 2, wherein R is the alkyl group in the rifamycin derivative (1).

Another data set can be described thus: Oral toxicity in mice. The class given is in vivo. The settings on record: orally administered to mice, 1,000 mg/kg.
The subject of data set [2] is Staphylococcus aureus 6097. Kind of data set: Dose titration in the mouse mastitis model (S. aureus-induced murine mastitis). The class given is in vivo. The following applies: mice, read 6 days after infection; for ED (mg/kg/d) Mastitis: 50% of mice without mastitis; for ED (mg/kg/d) Culture: 50% of mice with no bacteria cultured from gland.
Data set [3] concerns Staphylococcus aureus 9203. Kind of data set: MIC against the strain of the intracellular killing assay. Type of data set: cell-based.
For data set [4], the system named is S. aureus 30857, a rifampin-resistant isolate. Kind of data set: MIC, microbroth dilution, strain 30857. The class given is cell-based, Staphylococcus aureus. The following applies: strain 30857. The method, then:
(§1) Four S. aureus strains were used: S. aureus 30857, a rifampin-resistant isolate: S. aureus 6097, a strain used in the mouse mastitis test and originally from a case of gangrenous bovine mastitis; S. aureus B83-1, derived from the Newbould 305 strain; and S. aureus ATCC 29213, the in vitro control stain recommended by NCCLS.
(§2) All S. aureus strains were maintained on 3 mm glass beads immersed in trypticase soy broth (BBL Microbiology Systems, Cockeysville, Md.) with 10% glycerol and held at −70° C. until revived. Prior to testing, the strains were subcultured on tryptose blood agar base (Difco, Detroit, Mich.) supplemented with 5% sheep blood for 24 hours at 35° C.
(§3) These compounds were dissolved in 95% ethanol, a solution which was then diluted to 10% ethanol with sterile distilled water. Further dilutions were conducted in water.
(§4) MIC (Minimum Inhibitory Concentration) determinations were performed using the microbroth dilution method. (National Committee for Clinical Laboratory Standards, 1990 Approved Standard […]. Methods for dilution antimicrobial susceptibility tests for bacteria that grow aerobically, 3rd edition. National Committee for Clinical Laboratory Standards, Villanova, Pa.) The results are shown in Table 3, wherein R is the alkyl group R in the rifamycin derivative (1).

Data set [5] has as its system S. aureus 6097. Put plainly: MIC, microbroth dilution, strain 6097. The class given is cell-based, Staphylococcus aureus. The method, then: as §1, §2, §3, §4
On the technique in general: In broth dilution the organism is exposed to a series of concentrations in liquid medium.

Data set [6] has as its system S. aureus B83-1. Kind of data set: MIC, microbroth dilution, strain B83-1. The class given is cell-based, Staphylococcus aureus. The procedure: as §1, §2, §3, §4
Data set [7] concerns S. aureus ATCC 29213. Kind of data set: MIC, microbroth dilution, strain ATCC 29213. The class given is cell-based, Staphylococcus aureus. The method, then: as §1, §2, §3, §4
Data set [8] has as its system S. aureus 30857, a rifampin-resistant isolate. Type of data set: cell-based, Staphylococcus aureus. The settings on record: strain 30857. The method, then: (§5) The mutation frequency for development of resistance to the rifamycin derivative (1) as compared to rifampin was determined with selected Staphylococcus aureus strains.
as §1, §2, §3
(§6) The mutation frequency for development of resistance to the compounds tested was determined by the following method. A single colony of each strain was removed from the surface of a blood agar plate with a cotton swab, suspended in 5 ml of Mueller-Hinton broth (BBL), and streaked on the entire surface of five Mueller-Hinton agar plates. The plates were incubated overnight under aerobic conditions at 35° C., growth was removed from the agar using a sterile cotton swab, and the bacteria were suspended in 10 ml physiological saline. This bacterial suspension was the inoculum for the mutation frequency determinations. Standard plate counts were performed on the inoculum by performing serial dilutions and plating a 0.1 ml aliquot on the surface of ten Mueller-Hinton agar plates at each concentration. The plates were incubated for 18-24 hours at 35° C. under aerobic conditions and colony counts performed. Mean bacterial counts were calculated for the inoculum with each strain.
(§7) A 0.1 ml aliquot of the inoculum was then used to inoculate the entire surface of ten plates each containing 1, 10, and 100 μg/ml of the test antimicrobial agents. The plates were incubated for 18-24 hours at 35° C. under aerobic conditions and colony counts performed. Mean bacterial counts were calculated for each antimicrobial concentration and the mutation frequency calculated by dividing the number of colonies which grew on the drug containing media by the inoculum size.

The subject of data set [9] is S. aureus 6097. Kind of data set: Mutation frequency for resistance, strain 6097. The class given is cell-based, Staphylococcus aureus. The procedure:
as §5, §1, §2, §3, §6, §7

Data set [10] deals with S. aureus B83-1. Put plainly: Mutation frequency for resistance, strain B83-1. The class given is cell-based, Staphylococcus aureus. The procedure: as §5, §1, §2, §3, §6, §7
In data set [11] the test system is S. aureus ATCC 29213. Put plainly: Mutation frequency for resistance, strain ATCC 29213. The class given is cell-based, Staphylococcus aureus. The procedure:
as §5, §1, §2, §3, §6, §7

[12] abbreviates: route IMM (intramammary), 1 hour after infection.

Converted amounts (≈) assume the structure as drawn. Where two headings read alike, the source gives them in different places.

As to `Cc1onc(-c2ccccc2Cl)c1C(=O)N[C@@H]1C(=O)N2[C@@H]1SC(C)(C)[C@@H]2C(=O)O` [Cloxacillin, reference compound], in data set [1] (100X MIC), the “% reduction” value worked out at 0.0% and the “CFU/ml ISD (×10^3)” value is on record as 5.9 ± 1.9 CFU/ml (×10^3).

As for `COC1/C=C/OC2(C)Oc3c(C)c(O)c4c(=O)c(c5oc6cc(N7CCN(C8CC8)CC7)cc(O)c6nc-5c4c3C2=O)NC(=O)/C(C)=C\C=C\C(C)C(O)C(C)C(O)C(C)C(OC(C)=O)C1C` (stereo not shown) [R = cyclopropyl], in “Oral toxicity in mice”, the toxicity result is “did not show any toxicity”.

As to `CCN1CCN(c2cc(O)c3nc4c5c6c7c(C)c(O)c5c(=O)c(c-4oc3c2)NC(=O)/C(C)=C\C=C\C(C)C(O)C(C)C(O)C(C)C(OC(C)=O)C(C)C(OC)/C=C/OC(C)(O7)C6=O)CC1` (stereo not shown) [R = ethyl], the “ED (mg/kg/d) Mastitis” value in [2] (setting [12]) is 0.3 mg/kg/day; in [2] (route SC (subcutaneous)), 0.4 mg/kg/day. In addition, the figures for the “ED (mg/kg/d) Culture” value in data set [2] (route IMM (intramammary)) and in [2] (route SC (subcutaneous)) were 0.4 mg/kg/day and 1.5 mg/kg/day, respectively. In the data set “Oral toxicity in mice”, the toxicity entry is “did not show any toxicity”. Further, the “% reduction” value in data set [1] (1X MIC) came to 97.0%; in data set [1] (100X MIC), 100%. The “CFU/ml ISD (×10^3)” value in [1] (1X MIC) was 0.09 ± 0.04 CFU/ml (×10^3); in [1] (100X MIC), 0.0 CFU/ml (×10^3). In addition, the MIC entry in data set [3] is “≦0.03 μg/ml”.

On to `COC1/C=C/OC2(C)Oc3c(C)c(O)c4c(=O)c(c5oc6cc(N7CCN(CC(C)C)CC7)cc(O)c6nc-5c4c3C2=O)NC(=O)/C(C)=C\C=C\C(C)C(O)C(C)C(O)C(C)C(OC(C)=O)C1C` (stereo not shown) [R = isobutyl], for which the “ED (mg/kg/d) Mastitis” value in data set [2] (setting [12]) worked out at 0.3 mg/kg/day; in [2] (route SC (subcutaneous)), 3.5 mg/kg/day. For the same compound, the “ED (mg/kg/d) Culture” value in data set [2] (route IMM (intramammary)) worked out at 0.3 mg/kg/day; in data set [2] (route SC (subcutaneous)), 3.5 mg/kg/day. Besides, in “Oral toxicity in mice”, the toxicity result is given as “did not show any toxicity”. Also, the “% reduction” value in data set [1] (1X MIC) was 95.0%; in [1] (100X MIC), 100%. The results for the “CFU/ml ISD (×10^3)” value in data set [1] (1X MIC) and in data set [1] (100X MIC) were 0.15 ± 0.06 CFU/ml (×10^3) and 0.0 CFU/ml (×10^3), respectively. The MIC entry was “≦0.03 μg/ml” in data set [3]; above 4000 ng/mL in [4]; 0.98 ng/mL (≈ 1.04 nM) with S. aureus 6097 [5]; 1.9 ng/mL (≈ 2.02 nM) in the data set on S. aureus B83-1 [6]; 1.9 ng/mL (≈ 2.02 nM) in the data set on S. aureus ATCC 29213 [7]. For the same compound, the Mutation frequency in data set [8] (1 μg/ml) is >1.0 × 10^−7; in [8] (10 μg/ml), >1.0 × 10^−7; in data set [8] (100 μg/ml) it was >1.0 × 10^−7; with S. aureus 6097 [9] (1 μg/ml), 9.5 × 10^−8; with S. aureus 6097 [9] (10 μg/ml) it was 8.9 × 10^−8; with S. aureus 6097 [9] (100 μg/ml), 9.9 × 10^−8. In addition, the Mutation frequency in the data set on S. aureus B83-1 [10] (1 μg/ml) was 5.0 × 10^−8; in the data set on S. aureus B83-1 [10] (10 μg/ml), 5.2 × 10^−8; with S. aureus B83-1 [10] (100 μg/ml), 4.7 × 10^−8; in the data set on S. aureus ATCC 29213 [11] (1 μg/ml), 3.0 × 10^−8; in the data set on S. aureus ATCC 29213 [11] (10 μg/ml), 3.7 × 10^−8; in the data set on S. aureus ATCC 29213 [11] (100 μg/ml), 3.5 × 10^−8.

Take `COC1/C=C/OC2(C)Oc3c(C)c(O)c4c(=O)c(c5oc6cc(N7CCN(C(C)C)CC7)cc(O)c6nc-5c4c3C2=O)NC(=O)/C(C)=C\C=C\C(C)C(O)C(C)C(O)C(C)C(OC(C)=O)C1C` (stereo not shown) [R = isopropyl]: the “ED (mg/kg/d) Mastitis” value in data set [2] (setting [12]) turned out to be 0.2 mg/kg/day; in data set [2] (route SC (subcutaneous)), 0.4 mg/kg/day. The “ED (mg/kg/d) Culture” value is 0.2 mg/kg/day in data set [2] (route IMM (intramammary)) and 0.6 mg/kg/day in data set [2] (route SC (subcutaneous)). Further, the toxicity result in the data set “Oral toxicity in mice” is on record as “did not show any toxicity”. The “% reduction” value in [1] (1X MIC) and in data set [1] (100X MIC) was 100% in each case. The “CFU/ml ISD (×10^3)” value in data set [1] (1X MIC) and in data set [1] (100X MIC) was 0.0 CFU/ml (×10^3) in each case. For the same compound, in [3], the MIC result is reported as “≦0.03 μg/ml”.

As a reminder, the MIC is the smallest concentration in the dilution series that meets the test's criterion for growth inhibition. The low end stands for greater potency, the high end for weaker potency.

These data come from US6486161B1, “Use of rifamycin derivative for treating mastitis in a domestic animal” (priority 2000, dated 2002).
